Measured values as given in patent US4594347A, “Pyrrolo [3,2,1-ij]-quinoline carboxylic acid compound” (Otsuka Pharmaceutical Co. Limited, priority 1983, dated 1986).

Legend:
Experiment in all cases: Antimicrobial test in vitro (MIC, agar plate dilution method)
Format in all cases: cell-based
Set-up in all cases: unit not given here
[1] = tested on: Staphylococcus aureus FDA 209P; conditions: S. aureus FDA 209P
Method: (§1) The antimicrobial activities of the following test compounds were tested by measuring the minimum inhibitory concentration (MIC) by an agar plate dilution method [cf. Chemotherapy, 22, 1126-1128 (1974)]. The test microorganisms were used in a concentration of 1×10^8 cells/ml (optical dencity (O.D.) at 660 m: 0.07-0.16) and 1×10^6 cells/ml (dilution: 100 folds).
A: Staphylococcus aureus FDA 209P

[2] = tested on: Streptococcus pyogenes II D S-23; conditions: S. pyogenes II D S-23
Method: as §1
B: Streptococcus pyogenes II D S-23

[3] = tested on: Escherichia coli NIHJ JC-2; conditions: E. coli NIHJ JC-2
Method: as §1
C: Escherichia coli NIHJ JC-2

Escherichia coli No. 29 = conditions: E. coli No. 29
Method: as §1
D: Escherichia coli No. 29

[4] = tested on: Klebsiella pneumoniae NCTC 9632; conditions: K. pneumoniae NCTC 9632
Method: as §1
E: Klebsiella pneumoniae NCTC 9632

Proteus mirabilis 1287 = conditions: P. mirabilis 1287
Method: as §1
F: Proteus mirabilis 1287

[5] = tested on: Proteus morganii II D Kono; conditions: P. morganii II D Kono
Method: as §1
G: Proteus morganii II D Kono

[6] = tested on: Serratia marcescens IFO 12648; conditions: S. marcescens IFO 12648
Method: as §1
H: Serratia marcescens IFO 12648

[7] = tested on: Acinetobacter calcoaceticus AC-54; conditions: A. calcoaceticus AC-54
Method: as §1
I: Acinetobacter calcoaceticus AC-54

[8] = tested on: Pseudomonas aeruginosa ATCC 10145; conditions: P. aeruginosa ATCC 10145
Method: as §1
J: Pseudomonas aeruginosa ATCC 10145

[9] = tested on: Pseudomonas aeruginosa E-2; conditions: P. aeruginosa E-2
Method: as §1
K: Pseudomonas aeruginosa E-2

| SMILES | minimum inhibitory concentration (MIC) ([1]; 1×10^6 cells/ml) | minimum inhibitory concentration (MIC) ([1]; 1×10^8 cells/ml) | minimum inhibitory concentration (MIC) ([2]; 1×10^6 cells/ml) | minimum inhibitory concentration (MIC) ([2]; 1×10^8 cells/ml) | minimum inhibitory concentration (MIC) ([3]; 1×10^6 cells/ml) | minimum inhibitory concentration (MIC) ([3]; 1×10^8 cells/ml) | minimum inhibitory concentration (MIC) (Escherichia coli No. 29; 1×10^6 cells/ml) | minimum inhibitory concentration (MIC) (Escherichia coli No. 29; 1×10^8 cells/ml) | minimum inhibitory concentration (MIC) ([4]; 1×10^6 cells/ml) | minimum inhibitory concentration (MIC) ([4]; 1×10^8 cells/ml) | minimum inhibitory concentration (MIC) (Proteus mirabilis 1287; 1×10^6 cells/ml) | minimum inhibitory concentration (MIC) (Proteus mirabilis 1287; 1×10^8 cells/ml) | minimum inhibitory concentration (MIC) ([5]; 1×10^6 cells/ml) | minimum inhibitory concentration (MIC) ([5]; 1×10^8 cells/ml) | minimum inhibitory concentration (MIC) ([6]; 1×10^6 cells/ml) | minimum inhibitory concentration (MIC) ([6]; 1×10^8 cells/ml) | minimum inhibitory concentration (MIC) ([7]; 1×10^6 cells/ml) | minimum inhibitory concentration (MIC) ([7]; 1×10^8 cells/ml) | minimum inhibitory concentration (MIC) ([8]; 1×10^6 cells/ml) | minimum inhibitory concentration (MIC) ([8]; 1×10^8 cells/ml) | also measured |
| --- | --- | --- | --- | --- | --- | --- | --- | --- | --- | --- | --- | --- | --- | --- | --- | --- | --- | --- | --- | --- | --- |
| CC1Cc2c(N3CCOCC3)c(F)c(N)c3c(=O)c(C(=O)O)cn1c23 (centres unmarked) [Compound 3, 7-amino-8-fluoro-9-(4-morpholino)-2-methyl-6-oxo-1,2-dihydro-pyrrolo[3,2,1-ij]quinoline-5-carboxylic acid] | 0.2 | 0.39 | 12.5 | 12.5 | 0.2 | 0.2 | 0.2 | 0.39 | 0.39 | 0.39 | 0.78 | 1.56 | 0.39 | 0.39 | 0.78 | 0.78 | 0.78 | 1.56 | 3.13 | 6.25 | minimum inhibitory concentration (MIC) ([9]; 1×10^6 cells/ml): 6.25; minimum inhibitory concentration (MIC) ([9]; 1×10^8 cells/ml): 6.25 |
| CC1Cc2c(N3CCC(O)CC3)c(F)c(N)c3c(=O)c(C(=O)O)cn1c23 (centres unmarked) [Compound 5, 7-amino-8-fluoro-9-(4-hydroxy-1-piperidyl)-2-methyl-6-oxo-1,2-dihydro-pyrrolo[3,2,1-ij]quinoline-5-carboxylic acid] | 0.2 | 0.39 | 6.25 | 12.5 | 0.39 | 0.78 | 0.78 | 0.78 | 0.78 | 0.78 | 1.56 | 1.56 | 1.56 | 1.56 | 1.56 | 3.13 | 3.13 | 6.25 | 6.25 | 6.25 | minimum inhibitory concentration (MIC) ([9]; 1×10^6 cells/ml): 6.25; minimum inhibitory concentration (MIC) ([9]; 1×10^8 cells/ml): 12.5 |
| CC1Cc2c(N3CCNCC3)c(F)c(N)c3c(=O)c(C(=O)O)cn1c23 (centres unmarked) [Compound 2, 8-fluoro-2-methyl-9-(1-piperazinyl)-7-amino-6-oxo-1,2-dihydro-pyrrolo[3,2,1-ij]quinoline-5-carboxylic acid] | 0.39 | 0.78 | 3.13 | 6.25 | 0.1 | 0.1 | 0.1 | 0.1 | 0.1 | 0.2 | 0.2 | 0.2 | 0.2 | 0.39 | 0.2 | 0.2 | 0.78 | 3.13 | 0.39 | 0.39 | minimum inhibitory concentration (MIC) ([9]; 1×10^6 cells/ml): 0.39; minimum inhibitory concentration (MIC) ([9]; 1×10^8 cells/ml): 0.39 |

Continued, in another order:

| minimum inhibitory concentration (MIC) ([1]; 1×10^6 cells/ml) | minimum inhibitory concentration (MIC) ([1]; 1×10^8 cells/ml) | minimum inhibitory concentration (MIC) ([2]; 1×10^6 cells/ml) | minimum inhibitory concentration (MIC) ([2]; 1×10^8 cells/ml) | minimum inhibitory concentration (MIC) ([3]; 1×10^6 cells/ml) | minimum inhibitory concentration (MIC) ([3]; 1×10^8 cells/ml) | minimum inhibitory concentration (MIC) (Escherichia coli No. 29; 1×10^6 cells/ml) | minimum inhibitory concentration (MIC) (Escherichia coli No. 29; 1×10^8 cells/ml) | minimum inhibitory concentration (MIC) ([4]; 1×10^6 cells/ml) | minimum inhibitory concentration (MIC) ([4]; 1×10^8 cells/ml) | minimum inhibitory concentration (MIC) (Proteus mirabilis 1287; 1×10^6 cells/ml) | minimum inhibitory concentration (MIC) (Proteus mirabilis 1287; 1×10^8 cells/ml) | minimum inhibitory concentration (MIC) ([5]; 1×10^6 cells/ml) | minimum inhibitory concentration (MIC) ([5]; 1×10^8 cells/ml) | minimum inhibitory concentration (MIC) ([6]; 1×10^6 cells/ml) | minimum inhibitory concentration (MIC) ([6]; 1×10^8 cells/ml) | minimum inhibitory concentration (MIC) ([7]; 1×10^6 cells/ml) | minimum inhibitory concentration (MIC) ([7]; 1×10^8 cells/ml) | minimum inhibitory concentration (MIC) ([8]; 1×10^6 cells/ml) | minimum inhibitory concentration (MIC) ([8]; 1×10^8 cells/ml) | SMILES | also measured |
| --- | --- | --- | --- | --- | --- | --- | --- | --- | --- | --- | --- | --- | --- | --- | --- | --- | --- | --- | --- | --- | --- |
| 0.39 | 0.39 | 25 | 25 | 0.78 | 0.78 | 1.56 | 1.56 | 1.56 | 3.13 | 6.25 | 6.25 | 1.56 | 1.56 | 6.25 | 6.25 | 6.25 | 6.25 | 12.5 | 25 | CC1Cc2c(N3CCCCC3)c(F)c(N)c3c(=O)c(C(=O)O)cn1c23 (centres unmarked) [Compound 4, 7-amino-8-fluoro-2-methyl-6-oxo-9-(1-piperidyl)-1,2-dihydro-pyrrolo[3,2,1-ij]quinoline-5-carboxylic acid] | minimum inhibitory concentration (MIC) ([9]; 1×10^6 cells/ml): 25; minimum inhibitory concentration (MIC) ([9]; 1×10^8 cells/ml): 25 |
| 0.39 | 0.78 | 6.25 | 12.5 | 0.78 | 1.56 | 1.56 | 1.56 | 1.56 | 6.25 | 6.25 | 6.25 | 6.25 | 6.25 | 6.25 | 6.25 | 6.25 | 6.25 | 6.25 | 12.5 | CC1Cc2c(N3CCCC3)c(F)c(N)c3c(=O)c(C(=O)O)cn1c23 (centres unmarked) [Compound 6, 7-amino-8-fluoro-2-methyl-6-oxo-9-(1-pyrrolidinyl)-1,2-dihydro-pyrrolo[3,2,1-ij]quinoline-5-carboxylic acid] | minimum inhibitory concentration (MIC) ([9]; 1×10^6 cells/ml): 1.56; minimum inhibitory concentration (MIC) ([9]; 1×10^8 cells/ml): 12.5 |
